In brackets after ≈: the same amount, converted by molar mass. Activity calls are given as the source filed them. No cut-off for these calls is given here.
Columns and labels:
MDA-MB-231 [1] = assay: Cytotoxicity against human MDA-MB-231 cells after 48 hrs by MTT assay; assay type: functional, cell-based; conditions: MDA-MB-231, 48 h
Enterobacter cloacae [2] = assay: Antibacterial activity against Enterobacter cloacae NAIMCC-B-02025 assessed as zone of inhibition measured after 18 hrs by disc diffusion method; assay type: functional
NIH3T3 = assay: Cytotoxicity against mouse NIH/3T3 cells after 48 hrs by MTT assay; assay type: cell-based; conditions: NIH3T3, 48 h
PC-3 = assay: Cytotoxicity against human PC3 cells after 48 hrs by MTT assay; assay type: functional, cell-based; conditions: PC-3, 48 h
LNCaP C4-2 = assay: Cytotoxicity against human C4-2 cells after 48 hrs by MTT assay; assay type: functional, cell-based; conditions: LNCaP C4-2, 48 h
HEK-293T = assay: Cytotoxicity against human HEK293T cells after 48 hrs by MTT assay; assay type: cell-based
Pseudomonas aeruginosa = assay: Antibacterial activity against Pseudomonas aeruginosa MTCC 424 assessed as zone of inhibition measured after 18 hrs by disc diffusion method; assay type: functional
HeLa = assay: Cytotoxicity against human HeLa cells after 48 hrs by MTT assay; assay type: functional, cell-based
Staphylococcus aureus [3] = assay: Antibacterial activity against Staphylococcus aureus MTCC 96 assessed as zone of inhibition measured after 18 hrs by disc diffusion method; assay type: functional
BXPC-3 = assay: Cytotoxicity against human BxPC3 cells after 48 hrs by MTT assay; assay type: functional, cell-based; conditions: BXPC-3, 48 h
Bacillus subtilis [4] = assay: Antibacterial activity against Bacillus subtilis MTCC 121 after 24 hrs by broth microdilution assay; assay type: functional; conditions: MTCC 121, 24 h
Bacillus subtilis [5] = assay: Antibacterial activity against Bacillus subtilis MTCC 121 assessed as zone of inhibition measured after 18 hrs by disc diffusion method; assay type: functional
Enterobacter cloacae [6] = assay: Antibacterial activity against Enterobacter cloacae NAIMCC-B-02025 after 24 hrs by broth microdilution assay; assay type: functional; conditions: NAIMCC-B-02025, 24 h
Staphylococcus aureus [7] = assay: Antibacterial activity against Staphylococcus aureus MTCC 96 after 24 hrs by broth microdilution assay; assay type: functional; conditions: MTCC 96, 24 h
Escherichia coli = assay: Antibacterial activity against Escherichia coli MTCC 1652 assessed as zone of inhibition measured after 18 hrs by disc diffusion method; assay type: functional
MDA-MB-231 [8] = assay: Induction of apoptosis in human MDA-MB-231 cells assessed as morphological changes after 24 hrs by acridine orange/ethidium bromide-dual staining based fluorescence microscopic method; assay type: functional, cell-based

| Compound | MIC (Bacillus subtilis [4]) [µM] | MIC (Enterobacter cloacae [6]) [µM] | MIC (Staphylococcus aureus [7]) [µM] | IC50 (MDA-MB-231 [1]) [µM] | inhibition zone (IZ) (Enterobacter cloacae [2]) [mm] | IC50 (NIH3T3) [µM] | IC50 (PC-3) [µM] | IC50 (LNCaP C4-2) [µM] | IC50 (HEK-293T) [µM] | inhibition zone (IZ) (Pseudomonas aeruginosa) [mm] | IC50 (HeLa) [µM] | inhibition zone (IZ) (Staphylococcus aureus [3]) [mm] | IC50 (BXPC-3) [µM] | inhibition zone (IZ) (Bacillus subtilis [5]) [mm] | inhibition zone (IZ) (Escherichia coli) [mm] | Activity (MDA-MB-231 [8]) |
| --- | --- | --- | --- | --- | --- | --- | --- | --- | --- | --- | --- | --- | --- | --- | --- | --- |
| C#CC[n+]1ccc2c([nH]c3ccccc32)c1C(=O)/C=C/c1ccc(OC)cc1.[Br-] |  |  |  | > 100 | 6 | > 100 | > 100 | > 100 | > 100 | 7 | > 100 | 9 | > 100 |  |  |  |
| C#CC[n+]1ccc2c([nH]c3ccccc32)c1C(=O)/C=C/c1ccc2c(c1)OCO2.[Br-] |  |  |  | 21.2 | 6 | 72.1 | 29.6 | 24.4 | 19.1 | 7 | 25.3 | 9 | 30.1 | 7 |  |  |
| O=C(/C=C/c1ccc2c(c1)OCO2)c1nccc2c1[nH]c1ccccc12 |  |  |  | > 100 |  | > 100 | > 100 | > 100 | > 100 |  | > 100 |  | > 100 |  |  |  |
| CCCC[n+]1ccc2c([nH]c3ccccc32)c1C(=O)/C=C/c1ccc(OC)cc1.[Br-] |  |  |  | 40.9 |  | 74.6 | 65 | 38.8 | 35.2 |  | 45 | 9 | 50.8 |  |  |  |
| O=C(N[C@H](CO)[C@H](O)c1ccc([N+](=O)[O-])cc1)C(Cl)Cl [CHLORAMPHENICOL] | 32 (≈ 10.3 µg/mL) | 24 (≈ 7.76 µg/mL) | 17 (≈ 5.49 µg/mL) |  | 20 |  |  |  |  | 21 |  | 22 |  | 22 | 22 |  |
| COc1cccc2c1C(=O)c1c(O)c3c(c(O)c1C2=O)C[C@@](O)(C(=O)CO)C[C@@H]3O[C@H]1C[C@H](N)[C@H](O)[C@H](C)O1 [DOXORUBICIN] |  |  |  | 7.85 |  | 21.3 | 10.2 | 3.2 | 3.59 |  |  |  | 13.6 |  |  | Active |
| CCCC[n+]1ccc2c([nH]c3ccccc32)c1C(=O)/C=C/c1ccc2c(c1)OCO2.[Br-] |  |  |  | > 100 |  | > 100 | > 100 | > 100 | > 100 |  | > 100 | 9 | > 100 | 7 |  |  |
| O=C(/C=C/c1ccc2c(c1)OCO2)c1c2[nH]c3ccccc3c2cc[n+]1Cc1ccccc1.[Br-] |  |  |  | 48.2 | 8 | 82.2 | 79 | 42.1 | 55.1 |  | 45.2 | 7 | 55.3 | 6 |  |  |

More lines, main results first:

| MIC (Bacillus subtilis [4]) [µM] | MIC (Enterobacter cloacae [6]) [µM] | MIC (Staphylococcus aureus [7]) [µM] | Compound | IC50 (MDA-MB-231 [1]) [µM] | inhibition zone (IZ) (Enterobacter cloacae [2]) [mm] | IC50 (NIH3T3) [µM] | IC50 (PC-3) [µM] | IC50 (LNCaP C4-2) [µM] | IC50 (HEK-293T) [µM] | inhibition zone (IZ) (Pseudomonas aeruginosa) [mm] | IC50 (HeLa) [µM] | inhibition zone (IZ) (Staphylococcus aureus [3]) [mm] | IC50 (BXPC-3) [µM] | inhibition zone (IZ) (Bacillus subtilis [5]) [mm] | inhibition zone (IZ) (Escherichia coli) [mm] | Activity (MDA-MB-231 [8]) |
| --- | --- | --- | --- | --- | --- | --- | --- | --- | --- | --- | --- | --- | --- | --- | --- | --- |
| 838 (≈ 250 µg/mL) |  |  | O=C(/C=C/c1ccccc1)c1nccc2c1[nH]c1ccccc12 | 71.1 |  | > 100 | 93 | 80.2 | 65.6 |  | 82.4 |  | 72 | 9 |  |  |
| 720 (≈ 225 µg/mL) | 828 (≈ 259 µg/mL) | 820 (≈ 256 µg/mL) | Cc1ccc(/C=C/C(=O)c2nccc3c2[nH]c2ccccc23)cc1 | > 100 | 10 | > 100 | > 100 | > 100 | > 100 |  | > 100 | 10 | > 100 | 12 |  |  |
|  | 590 |  | C#CC[n+]1ccc2c([nH]c3ccccc32)c1C(=O)/C=C/c1cc(OC)c(OC)c(OC)c1.[Br-] | 59.6 | 13 | 88 | 61 | 65.5 | 55.1 | 9 | 70.1 | 9 | 72 |  |  |  |
| 870 (≈ 297 µg/mL) | 880 (≈ 300 µg/mL) | 715 (≈ 244 µg/mL) | CN(C)c1ccc(/C=C/C(=O)c2nccc3c2[nH]c2ccccc23)cc1 |  | 8 |  |  |  |  |  |  | 11 |  | 8 | 8 |  |
|  | 806 | 812 | CCCC[n+]1ccc2c([nH]c3ccccc32)c1C(=O)/C=C/c1cc(OC)c(OC)c(OC)c1.[Br-] | 32 | 10 | 68.6 | 40.1 | 39.6 | 34.4 | 12 | 35.6 | 10 | 25.1 |  | 8 |  |
| 875 | 874 | 440 | COc1ccc(/C=C/C(=O)c2c3[nH]c4ccccc4c3cc[n+]2Cc2ccccc2)cc1.[Br-] | 52.2 | 8 | 85.3 | 88.3 | 65.5 | 41.4 |  | 60.1 | 15 | 50.2 | 8 | 8 |  |
|  | 726 |  | COc1cc(/C=C/C(=O)c2c3[nH]c4ccccc4c3cc[n+]2Cc2ccccc2)cc(OC)c1OC.[Br-] | 16 | 12 | 55.2 | 22 | 16.1 | 17.2 |  | 22.1 | 9 | 20 | 7 |  | Active |
| 885 (≈ 291 µg/mL) | 846 (≈ 278 µg/mL) | 733 (≈ 241 µg/mL) | COc1ccc(/C=C/C(=O)c2nccc3c2[nH]c2ccccc23)cc1 | > 100 | 9 | > 100 | > 100 | > 100 | > 100 | 8 | > 100 | 12 | > 100 | 8 |  |  |
|  | 834 (≈ 324 µg/mL) | > 900 | COc1cc(/C=C/C(=O)c2nccc3c2[nH]c2ccccc23)cc(OC)c1OC | 71.5 | 10 | > 100 | > 100 | 71.6 | 82.1 |  | 75.2 | 7 | 70.8 |  |  |  |
|  | 726 (≈ 266 µg/mL) | 710 (≈ 260 µg/mL) | O=C(/C=C/c1ccc(C(F)(F)F)cc1)c1nccc2c1[nH]c1ccccc12 |  | 11 |  |  |  |  |  |  | 11 |  |  | 10 |  |

— ChEMBL document CHEMBL4219171, “Synthesis and investigations into the anticancer and antibacterial activity studies of β-carboline chalcones and their bromide salts” (Bioorg Med Chem Lett, 2018)
